Source: article doi:10.1101/2024.09.09.611999v1 (biorxiv, 2024)
Residue numbers refer to the chain shown, from its start. Like-named read-outs stand apart in the source and are kept apart here.

How the values were obtained:
overexpressed PRDX6 = molecular target: T1, overexpressed PRDX6 (Homo sapiens, UniProt P30041); experiment: H2O2 clearance; assay type: cell-based
T1 sequence (P30041 2-224): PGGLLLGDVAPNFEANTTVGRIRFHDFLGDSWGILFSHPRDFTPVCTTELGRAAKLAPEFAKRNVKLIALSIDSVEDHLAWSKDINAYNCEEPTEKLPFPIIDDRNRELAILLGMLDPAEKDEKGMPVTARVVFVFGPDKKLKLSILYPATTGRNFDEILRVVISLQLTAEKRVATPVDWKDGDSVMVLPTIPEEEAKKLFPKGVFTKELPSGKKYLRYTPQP

PRDX6 with GFP tag [1] = molecular target: T2, PRDX6 with GFP tag (Homo sapiens, UniProt P30041, C91A); experiment: cellular microscale thermophoresis, GFP fusion
T2 sequence (P30041 2-224 C91A): T1 sequence (P30041 2-224) with C90A

PRDX6 with GFP tag [2] = molecular target: T3, PRDX6 with GFP tag (Homo sapiens, UniProt P30041, E210A); experiment: cellular microscale thermophoresis, GFP fusion
T3 sequence (P30041 2-224 E210A): T1 sequence (P30041 2-224) with E209A

CC(=O)N[C@@H](CS)C(=O)O [NAC, reference compound]
IC50 (overexpressed PRDX6; substrate H2O2): 15.5 µM

O=c1cc(-c2ccc(O)cc2)oc2cc(O)cc(O)c12 [apigenin, 4’,5,7-trihydroxyflavone]
Kd (PRDX6 with GFP tag [1]): 10.9 µM
Kd (PRDX6 with GFP tag [2]): 14.5 µM
IC50 (overexpressed PRDX6): 49.5 µM
